One series concerns the target T1, hNK2 receptor (Homo sapiens, UniProt P21452).
T1 construct: host or cells: CHO cells
T1 sequence (P21452 1-398): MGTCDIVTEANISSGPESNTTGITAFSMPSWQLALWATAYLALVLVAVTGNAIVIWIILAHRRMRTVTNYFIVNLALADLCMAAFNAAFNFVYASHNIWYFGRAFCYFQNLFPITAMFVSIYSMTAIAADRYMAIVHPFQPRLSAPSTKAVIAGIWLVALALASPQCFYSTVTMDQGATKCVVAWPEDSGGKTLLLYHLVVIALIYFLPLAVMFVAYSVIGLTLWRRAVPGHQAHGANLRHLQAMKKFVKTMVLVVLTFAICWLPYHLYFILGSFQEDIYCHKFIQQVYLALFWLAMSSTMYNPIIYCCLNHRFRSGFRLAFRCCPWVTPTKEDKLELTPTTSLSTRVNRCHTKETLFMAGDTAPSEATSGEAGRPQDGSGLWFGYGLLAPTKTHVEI
Put plainly: Radioligand receptor binding inhibitory activity using membrane fraction of hNK2 receptor-expressing CHO cell ([125I]-NKA). To be noted: for inhibition at 1 µM / inhibition at 0.1 µM / inhibition at 0.01 µM: read-out: hNK2 receptor binding inhibitory activity (inhibitory rate (%)). As to the method: Radioligand Receptor Binding Inhibitory Activity Using Membrane Fraction of hNK2 Receptor-Expressing CHO Cell
hNK2 receptor-expressing CHO cells (produced by EUROSCREEN) were cultured in a flask placed HAM-F12 medium containing 400 μg/mL Geneticin, 100 U/mL penicillin, 100 μg/mL streptomycin and 10% inactivated serum. The medium was removed and adhered cells were washed with PBS, and PBS containing 5 mM EDTA was added to detach the cells from the flask. The cells were recovered by centrifugation, suspended in suspending buffer A (15 mM Tris-HCl (pH 7.5), 12.5 mM MgCl2, 0.3 mM EDTA, 1 mM EGTA (Ethylene Glycol Bis(beta-aminoethylether)-N,N,N,N-tetraacetic Acid)), disrupted by POLYTRON homogenizer (manufactured by KINEMATICA) and centrifuged at 850×g for 10 min at 4° C. The supernatant was recovered and ultracentrifuged at 142000×g for 60 min at 4° C. The precipitated fraction was suspended in suspending buffer B (7.5 mM Tris-HCl (pH 7.5), 12.5 mM MgCl2, 0.3 mM EDTA, 1 mM EGTA, 250 mM sucrose), and cryopreserved (at −80° C.) as a membrane fraction preparation of hNK2 receptor-expressing CHO cell.
The radioligand receptor binding assay was performed in a 96 well microassay plate format with a final volume of 200 μL.
An assay buffer (50 μL, 50 mM Tris-HCl (pH 7.4), 0.02% bovine serum albumin, 2 μg/mL chymostatin, 40 μg/mL bacitracin, 40 μg/mL APMSF, 3 mM MnCl2) was added to a 96 well microassay plate. Thereto was added 50 μL of the above-mentioned cryopreserved membrane fraction preparation suspended in the assay buffer (20 μg/mL). An assay buffer (50 μL) containing 2% dimethyl sulfoxide was added to examine the total binding, 4 μM unlabeled NKA (produced by Peptide Institute, Inc.) solution (50 μL) diluted with an assay buffer containing 2% dimethyl sulfoxide was added to examine non-specific binding, and a test compound diluted with an assay buffer (50 μL, containing 2% dimethyl sulfoxide) was added. Furthermore, […] [^125I]-NKA (produced by NEN) solution (50 μL) was added to each well.
After reaction at room temperature for 30 min, using a cell harvester (manufactured by PerkinElmer), the reaction was stopped by rapid filtration on a unifilter plate (GF/C) (manufactured by PerkinElmer), which had been immersed in 0.3% aqueous polyethyleneimine solution for one day, and the cells were washed 10 times with 50 mM Tris-HCl (pH 7.4) buffer (250 μL) containing 0.02% bovine serum albumin. The GF/C filter plate was dried and 20 μL of MicroScinti-0 (manufactured by PerkinElmer) was added to each well and the radioactivity was measured by TopCount (manufactured by PerkinElmer).
Specific binding is shown by the value obtained by subtracting non-specific binding from the total binding. The binding inhibitory activity of the test compound is shown by the ratio of the value obtained by subtracting the measured value associated with the addition of the test compound from the total binding, to the value of the specific binding.

Where a name gives a salt, the structure may show the parent alone.

On to `Cc1ccn(-c2ccc(C(=O)N[C@@H]3CCC(F)(F)C[C@@H]3C(=O)N3CCc4c(-c5ncc[nH]5)nc5ccccc5c43)cc2)n1.Cl` [Example 12, N-[(1R,2S)-4,4-difluoro-2-{[4-(1H-imidazol-2-yl)-2,3-dihydro-1H-pyrrolo[3,2-c]quinolin-1-yl]carbonyl}cyclohexyl]-4-(3-methyl-1H-pyrazol-1-yl)benzamide hydrochloride], for which the melting point (in general, the temperature of the solid-liquid transition) came to 232 °C. Further, at hNK2 receptor (test compound 10^−6 M), the inhibition at 1 µM was 101%. For the same molecule, at hNK2 receptor (test compound 10^−7 M), the inhibition at 0.1 µM came out at 101%. Further, the inhibition at 0.01 µM at hNK2 receptor (test compound 10^−8 M) is 99.8%.

On to `Cc1ccn(-c2ccc(C(=O)N[C@@H]3CCC(F)(F)C[C@@H]3C(=O)N3CCc4c(-c5ccsc5)nc5ccccc5c43)cc2)n1.Cl` [Example 8], for which the “hNK2 receptor binding inhibitory activity (inhibitory rate (%))” value on hNK2 receptor (test compound 10^−6 M) was determined as 100.7%; on hNK2 receptor (test compound 10^−7 M) it was 100.2%; on hNK2 receptor (test compound 10^−8 M), 98.5%.

As to `Cc1ccn(-c2ccc(C(=O)N[C@@H]3CCC(F)(F)C[C@@H]3C(=O)N3CCc4c(-c5ncc[nH]5)nc5ccc(F)cc5c43)cc2)n1` [Example 6, N-[(1R,2S)-4,4-difluoro-2-{[8-fluoro-4-(1H-imidazol-2-yl)-2,3-dihydro-1H-pyrrolo[3,2-c]quinolin-1-yl]carbonyl}cyclohexyl]-4-(3-methyl-1H-pyrazol-1-yl)benzamide hydrochloride], the inhibition at 1 µM at hNK2 receptor (test compound 10^−6 M) was 99.4%. Also, the inhibition at 0.1 µM at hNK2 receptor (test compound 10^−7 M) was 99.4%. Also, the inhibition at 0.01 µM on hNK2 receptor (test compound 10^−8 M) was found to be 96.1%.

For the molecule `Cc1ccn(-c2ccc(C(=O)N[C@@H]3CCC(F)(F)C[C@@H]3C(=O)N3CCc4c(-c5ccccc5)nc5ccc(F)cc5c43)cc2)n1.Cl` [Example 10, N-{(1R,2S)-4,4-difluoro-2-[(8-fluoro-4-phenyl-2,3-dihydro-1H-pyrrolo[3,2-c]quinolin-1-yl)carbonyl]cyclohexyl}-4-(3-methyl-1H-pyrazol-1-yl)benzamide hydrochloride], the results for the “hNK2 receptor binding inhibitory activity (inhibitory rate (%))” value on hNK2 receptor (test compound 10^−6 M), on hNK2 receptor (test compound 10^−7 M) and at hNK2 receptor (test compound 10^−8 M) were 99.9%, 99.5% and 92.8%, respectively.

The values are drawn from patent US20110112133A1, “DIHYDRO PYRROLOQUINOLINE DERIVATIVES” (Takeda Pharmaceutical Company Limited, priority 2009, published 2011).
